From patent US20160033528A1, “Methods for Selecting Peptides that Bind to Disease Specific Antibodies, Disease Specific Peptides and Uses Thereof” (The Regents of the University of California, priority 2014, published 2016)

What was measured:
[1] = tested on: CD patient IgG antibodies; test: Individual clone reactivity with individual patient sera by flow cytometry (second-generation PEQ peptides); assay type: binding, human; conditions: CD case sera n=18 not used for screening
Description: Depletion of E. coli binding serum antibodies. Diluted sera were depleted of E. coli binding antibodies prior to library screening and clone reactivity assays. To remove E. coli binding antibodies, an overnight culture of cells expressing the library scaffold (eCPX) with or without the v114 peptide were diluted (1:50) in fresh media and grown separately until the optical density at 600 nm (OD600) was ˜0.6. Cells were induced for 1 hr at 37° C., and then 2×10^9 cells from each culture were combined and centrifuged at 3000 ref for 5 min. Cells were resuspended in PBS-T (1 mL) containing 100× diluted pooled or individual sera. Samples were incubated overnight at 4° C. on an orbital shaker at 20 rpm. After incubation, samples were centrifuged at 3000 ref for 5 min (2×), and the depleted serum supernatant was recovered and stored at 4° C. for up to three days before use.
For flow cytometric analysis and sorting, induced cells corresponding to 5× the estimated remaining clonal diversity were incubated with 1:100-1:200 dilution of pooled sera for 45 min at 4° C. followed by centrifugation and removal of unbound supernatant (3× washing). The pellet was then resuspended in the respective 1:500 biotinylated goat anti-human secondary antibody (IgA/IgG/IgM) in 1× PBST at 4° C. for 45 min followed by centrifugation and removal of unbound supernatant (2× washing). For tertiary labeling, the pellet resuspended in 15 nM SA-PE in 1× PBST at 4° C. for 45 min, followed by another wash via centrifugation and resuspension (3× washing) in ice-cold PBST at a volume between 10^7 and 10^8 cells/mL. Resuspended cells were analyzed using a FACSAria cell sorter (Becton Dickinson) using 488-nm excitation. After sorting, retained cells were amplified for further rounds of sorting by overnight growth and plated to isolate single clones. […]
In vitro evolution of CD specific peptides. […] To assess the diagnostic sensitivity and specificity of individual peptides, the reactivities of one representative clone from each motif group was measured using CD case (n=18) and non-CD control sera (n=5) not used for screening. […]

[2] = tested on: serum IgA of patients with CD; conditions: cited from earlier work
[3] = tested on: anti-CSE antibodies; test: CSE reactivity in matched CD sera at diagnosis and after one year of gluten-free diet; assay type: binding, human; conditions: 11 CD cases
Text: Active CD patients (n=54) ranging in age from 18-74 had small intestinal biopsies with a Marsh 3a-3c histological lesion, tested seropositive for transglutaminase (TG2) and endomysium (EMA) autoantibodies, and were Caucasian. Human lymphocyte antigens (HLA)-typing for the presence of DQ2 or DQ8 alleles was available for 42/54 CD sera.
Directed evolution pooled clone & individual patient single clone reactivity assays. To compare the reactivity of consensus epitopes from each generation, overnight cultures of individual clones within a consensus epitope family (4-5 clones/family) were diluted (1:50) in fresh media and grown until the OD600 was between 0.5 and 0.7. Cultures of each individual Clones were induced for 45 min, and 10^6 cells from each culture were pooled together. Pooled consensus epitope families were assayed for binding to case and control group sera (3 subjects/group) by flow cytometry. […] Cells expressing the eCPX scaffold without a peptide insert were used as a negative (background) control. […]
To determine prevalence of anti-CSE antibodies in CD and control subjects, CD and non-CD sera (n=231) were assessed for reactivity to the CSE peptide: MDVRCRDSFVYQCHVGT (SEQ ID NO: 2). […]

Sequence | CD sera the peptide reacted with (reactive/tested) [1] | further results
VAWTMGPEQPLVRAL [PEQPL motif peptide, focused library 1] | 11/18 | 
VVKGGSSSLGW [celiac peptide, synthetic peptide of Giovanna et al., PLOS Med. 2006] |  | individual patients with CD whose serum IgA specifically recognized the peptide [2]: 68%
VWDRGVPEQMFPRKG [PEQxFP motif derived peptide, focused library 1] | 18/18 | 
MDVRCRDSFVYQCHVGT [CSE peptide] |  | patients with reduced, but non-zero, levels of epitope reactivity after a GFD ([3]; after one year on a gluten-free diet): 8/11; active CD patients reactive ([3]; sera at time-of-diagnosis): 10/11
GQGQAFPEQGSVPIN [A/VFPEQ motif peptide, focused library 1] | 14/18 | 
